These results are taken from patent US20240270811A1, “Glycosylated Neuropeptide Derivative, Pharmaceutical Composition, Intranasal/Nasal Drop Formulation, and Use of Pharmaceutical Composition” (Tokyo University of Science Foundation, priority 2021, published 2024).

Where no end group is shown, it is not given here. The star is where a group is joined. X1 = CC(=O)N[C@@H]1[C@@H](O)[C@H](O[C@@H]2O[C@H](CO)[C@@H](O[C@@H]3O[C@H](CO[C@H]4O[C@H](CO)[C@@H](O)[C@H](O)[C@@H]4O[C@@H]4O[C@H](CO)[C@@H](O[C@@H]5O[C@H](CO[C@]6(C(=O)O)C[C@H](O)[C@@H](NC(C)=O)[C@H]([C@H](O)[C@H](O)CO)O6)[C@H](O)[C@H](O)[C@H]5O)[C@H](O)[C@H]4NC(C)=O)[C@@H](O)[C@H](O[C@H]4O[C@H](CO)[C@@H](O)[C@H](O)[C@@H]4O[C@@H]4O[C@H](CO)[C@@H](O[C@@H]5O[C@H](CO[C@]6(C(=O)O)C[C@H](O)[C@@H](NC(C)=O)[C@H]([C@H](O)[C@H](O)CO)O6)[C@H](O)[C@H](O)[C@H]5O)[C@H](O)[C@H]4NC(C)=O)[C@@H]3O)[C@H](O)[C@H]2NC(C)=O)[C@@H](CO)O[C@H]1NC(=O)C*

Series [1] can be described thus: Observation of section of trigeminal nerve after intranasal administration (FITC-labelled). Format: in vivo, mouse. The note with it: 3.0 nmol/4 μL intranasal, 5 minutes. The method, then: After anesthetizing 7-week-old male ddY mice with isoflurane using an all-in-one small animal anesthetizer, a 16% DMSO solution of a PAS-CPP-GLP-2 derivative (11-sugar) labeled with FITC (3.0 nmol/4 μL) or 16% DMSO as a control was intranasally administered to the mice by the amount of 2 μL per nose cavity, 4 μL in total. The trigeminal nerve was isolated 5 minutes after the administration.
The trigeminal nerve was subjected to infiltration fixation with 4% PFA overnight. On the day following the isolation, the trigeminal nerve was substituted with 20% sucrose overnight (4° C.), and further with 30% sucrose overnight (4° C.). Thereafter, a frozen section with a thickness of 20 μm was prepared using a cryostat (CM3050S; Leica Microsystems).
The frozen section was mounted on a slide glass, and a circle was drawn around the section with a liquid blocker. To the inner side of the circle, 10 mM CuSO4/CH3COONH4 having an ability to suppress auto-fluorescence was added to immerse the section for 15 minutes. After washing three times with 1×PBS, a blocking buffer was added inside the circle and the section was subjected to blocking for 30 minutes at room temperature. […]

A short description of series [2]: Observation of section of trigeminal lemniscus after intranasal administration. Format: in vivo. Conditions: 3.0 nmol/mouse intranasal, 15 minutes. The method, then:
Mice were intranasally administered with 16% DMSO or a glycosylated GLP-2 derivative (3.0 nmol/mouse). The brain was isolated 15 minutes after the administration, and was subjected to infiltration fixation with 4% PFA overnight. On the day following the isolation, the brain was substituted with 30% sucrose overnight (4° C.). Thereafter, a frozen section of trigeminal lemniscus with a thickness of 30 μm was prepared using a cryostat (CM3050S; Leica Microsystems, WetZlar, Germany).
The frozen section was mounted on a slide glass, and was subjected to blocking for 30 minutes at room temperature with a blocking buffer. Thereafter, the section was added with a first antibody solution including Neuro-Chrom (trade name) Pan Neuronal Marker Antibody-Rabbit, diluted with a blocking buffer (1:500), and subjected to incubation overnight (4° C.). After washing three times with 1×PBS, the section was added with a first antibody solution including a GLP-2 polyclonal antibody diluted with a BSA/PBS solution (1:200), and subjected to incubation for 2 hours at room temperature. After washing three times with 1×PBS, the section was added with a second antibody solution including Alexa Fluor (trademark) 568 Goat Anti-Mouse IgG H&L, diluted 1000 times with a 1% BSA/PBS solution and DAPI ([…]), and subjected to incubation for 1 hour at room temperature. […]

Series [3] in a line: Distribution in brain by immunostaining of frozen brain sections (Example 6). Type of series: in vivo, mouse. The note with it: 3.0 nmol/4 μL intranasal. The method, then: The distribution in the brain of a glycosylated GLP-2 derivative (11-sugar) after intranasally administered was evaluated by preparing frozen brain sections and subjecting the same to immunostaining. The brain sections were prepared from tissues around the hippocampus (HIP), dorsomedial nucleus of the hypothalamus (DMH), olfactory bulb (OB), and pons/principal sensory nucleus of trigeminal nerve (Pr5). The olfactory bulb includes olfactory nerves, which are assumed to be a pathway for the migration of GLP-2.
After anesthetizing 7-week-old male ddY mice with isoflurane using an all-in-one small animal anesthetizer, a 16% DMSO solution of a PAS-CPP-GLP-2 derivative (11-sugar) (3.0 nmol/4 μL) or 16% DMSO as a control was intranasally administered to the mice by the amount of 2 μL per nose cavity, 4 μL in total. The brain was isolated 5 minutes after the administration and 20 minutes after administration.
The brain isolated 5 minutes after the intranasal administration was subjected to infiltration fixation with 4% PFA at 4° C. overnight without performing perfusion fixation. The isolation of the brain 20 minutes after the intranasal administration was performed by the following process.
The mouse is fixed in a supine position under anesthesia with isoflurane, and the chest was incised. PBS and 4% PFA were perfused, in this order, from the left chamber of the heart throughout the whole body for fixing the tissue. The isolated brain was preserved in a 4% PFA solution. On the day following the isolation, the brain samples were substituted with 20% sucrose overnight (4° C.), and further with 30% sucrose overnight (4° C.). Thereafter, a frozen section with a thickness of 30 μm was prepared using a cryostat (CM3050S; Leica Microsystems).
The frozen brain section was mounted on a slide glass, and a circle was drawn around the section with a liquid blocker. A blocking buffer was added inside the circle and the section was subjected to blocking for 30 minutes at room temperature. Thereafter, the section was added with a first antibody solution including a GLP-2 polyclonal antibody, diluted 200 times with a blocking solution, and subjected to incubation for 1 hour at room temperature. After washing three times with 1×PBS, the section was added with a second antibody solution including Alexa Fluor (trademark) 568 Goat Anti-Mouse IgG H&L, diluted 500 times with a BSA/PBS solution, and subjected to incubation for 1 hour at room temperature. After washing three times with 1×PBS, the section was mounted with ProLong (trademark) Diamond Antifade Mountant. After confirming the solidification of the mountant, the section was subjected to fluorescent observation and imaging with a confocal laser microscope (TCS SP8; Leica) and a software (Leica Application Suite X Software; Leica).

With “FFLIPKGRRRRRRRRGGHADGSFSDEMNTILDNLAARDFINWLIQTKITDC(X1)-OH [PAS-CPP-GLP-2 (11-sugar)]”, the “fluorescence in section of trigeminal nerve (overlap of derivative and neural fibers)” value in series [1] was “expresses yellow fluorescence”. Also, the “fluorescence in nerve bundle that constitutes the trigeminal lemniscus” value in series [2] is “a large amount of fluorescence for a drug was observed”. In series [3] (5 minutes), the “fluorescence at region around Pr5” value was “fluorescence was observed intensely” and the “fluorescence at the other regions (HIP, DMH, OB)” value was “very little fluorescence was observed”. Besides, in series [3] (20 minutes), the “fluorescence at DMH” value is recorded as “observed clearly”, the “fluorescence at HIP” value is recorded as “fluorescence was observed”, the “fluorescence at Pr5” value is on record as “florescence was observed” and the “fluorescence intensity at OB” value is reported as “weak”.
